Measured values published in ChEMBL document CHEMBL1201862, “PubChem BioAssay data set” (2004).
Calls of active or inactive are those of the source.

Key:
[1] = viability of HCT116 lacking mutant beta-catenin – cell-based, human colon tumor, dose response (AID 1045); type: functional;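 further: HCT116 colon tumor cells with beta catenin knocked out; cells exposed to compound for 60 hours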
[2] = target: T1, Mannose-6-phosphate isomerase (Homo sapiens, UniProt P34949); assay: MPI inhibition at elevated mannose 6-phosphate – biochemical, fluorescence intensity, high mannose 6-phosphate, primary screen (AID 1220)
T1 sequence (P34949 whole entry): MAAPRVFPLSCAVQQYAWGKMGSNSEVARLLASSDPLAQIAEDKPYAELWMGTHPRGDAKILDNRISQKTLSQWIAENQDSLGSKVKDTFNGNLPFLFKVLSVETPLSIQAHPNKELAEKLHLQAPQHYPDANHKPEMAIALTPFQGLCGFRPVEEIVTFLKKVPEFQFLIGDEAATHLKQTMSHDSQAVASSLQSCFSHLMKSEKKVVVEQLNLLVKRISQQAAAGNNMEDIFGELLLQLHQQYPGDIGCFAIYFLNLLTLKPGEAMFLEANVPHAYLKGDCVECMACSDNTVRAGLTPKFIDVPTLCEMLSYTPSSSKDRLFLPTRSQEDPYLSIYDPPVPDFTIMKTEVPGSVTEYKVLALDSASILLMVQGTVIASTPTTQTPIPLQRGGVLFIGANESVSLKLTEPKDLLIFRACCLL

[3] = target: T2, Apoptotic protease-activating factor 1 (Homo sapiens, UniProt O14727); type: functional
T2 sequence (O14727 whole entry): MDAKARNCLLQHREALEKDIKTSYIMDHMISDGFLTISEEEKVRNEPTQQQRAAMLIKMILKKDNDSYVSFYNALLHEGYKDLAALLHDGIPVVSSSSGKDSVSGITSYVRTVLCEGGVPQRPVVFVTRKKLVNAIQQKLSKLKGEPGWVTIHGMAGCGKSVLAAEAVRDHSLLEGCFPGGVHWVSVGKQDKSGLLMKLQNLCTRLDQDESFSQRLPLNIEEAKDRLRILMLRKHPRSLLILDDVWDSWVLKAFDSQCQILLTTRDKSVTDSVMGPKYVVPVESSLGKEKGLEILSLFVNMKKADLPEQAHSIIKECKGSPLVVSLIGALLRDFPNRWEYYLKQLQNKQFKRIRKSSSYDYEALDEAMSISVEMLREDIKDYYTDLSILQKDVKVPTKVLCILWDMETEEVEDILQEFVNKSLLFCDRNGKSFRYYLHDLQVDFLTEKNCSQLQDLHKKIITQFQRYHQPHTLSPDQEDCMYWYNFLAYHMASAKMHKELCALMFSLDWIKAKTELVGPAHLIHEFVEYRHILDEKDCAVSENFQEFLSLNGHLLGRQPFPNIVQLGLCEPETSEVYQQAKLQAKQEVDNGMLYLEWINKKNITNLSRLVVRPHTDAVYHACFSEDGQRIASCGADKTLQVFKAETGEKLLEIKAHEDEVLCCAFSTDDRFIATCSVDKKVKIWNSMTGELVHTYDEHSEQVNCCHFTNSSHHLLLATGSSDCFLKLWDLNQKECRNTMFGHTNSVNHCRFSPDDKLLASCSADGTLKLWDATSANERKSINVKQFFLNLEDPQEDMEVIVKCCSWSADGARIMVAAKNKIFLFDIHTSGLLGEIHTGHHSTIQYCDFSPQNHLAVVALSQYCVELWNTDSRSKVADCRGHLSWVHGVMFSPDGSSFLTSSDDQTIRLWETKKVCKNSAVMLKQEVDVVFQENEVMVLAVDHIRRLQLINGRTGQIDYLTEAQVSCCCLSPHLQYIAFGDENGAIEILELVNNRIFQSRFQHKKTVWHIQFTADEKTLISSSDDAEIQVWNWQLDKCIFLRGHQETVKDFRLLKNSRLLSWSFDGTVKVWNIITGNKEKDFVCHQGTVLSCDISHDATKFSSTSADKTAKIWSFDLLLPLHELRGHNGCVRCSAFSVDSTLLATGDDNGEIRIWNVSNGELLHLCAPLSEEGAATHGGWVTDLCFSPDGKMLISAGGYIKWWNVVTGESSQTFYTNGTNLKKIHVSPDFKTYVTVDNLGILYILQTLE

[4] = target: Serine/threonine-protein kinase PLK4 (Homo sapiens, UniProt O00444); type: functional;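 further: PLK4 measured as one member of a kinome-wide kinase profiling panel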
[5] = target: Receptor-type tyrosine-protein kinase FLT3 (Homo sapiens, UniProt P36888); type: functional;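 further: FLT3 was tested as one member of a kinome-wide kinase panel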
[6] = target: T3, Rac GTPase-activating protein 1 (Homo sapiens, UniProt Q9H0H5); assay: blockers of MgcRacGAP-driven Rac1 GTP hydrolysis – biochemical, ADP Hunter fluorescence, primary and confirmatory, confirmation (AID 624330); type: functional
T3 sequence (Q9H0H5 whole entry): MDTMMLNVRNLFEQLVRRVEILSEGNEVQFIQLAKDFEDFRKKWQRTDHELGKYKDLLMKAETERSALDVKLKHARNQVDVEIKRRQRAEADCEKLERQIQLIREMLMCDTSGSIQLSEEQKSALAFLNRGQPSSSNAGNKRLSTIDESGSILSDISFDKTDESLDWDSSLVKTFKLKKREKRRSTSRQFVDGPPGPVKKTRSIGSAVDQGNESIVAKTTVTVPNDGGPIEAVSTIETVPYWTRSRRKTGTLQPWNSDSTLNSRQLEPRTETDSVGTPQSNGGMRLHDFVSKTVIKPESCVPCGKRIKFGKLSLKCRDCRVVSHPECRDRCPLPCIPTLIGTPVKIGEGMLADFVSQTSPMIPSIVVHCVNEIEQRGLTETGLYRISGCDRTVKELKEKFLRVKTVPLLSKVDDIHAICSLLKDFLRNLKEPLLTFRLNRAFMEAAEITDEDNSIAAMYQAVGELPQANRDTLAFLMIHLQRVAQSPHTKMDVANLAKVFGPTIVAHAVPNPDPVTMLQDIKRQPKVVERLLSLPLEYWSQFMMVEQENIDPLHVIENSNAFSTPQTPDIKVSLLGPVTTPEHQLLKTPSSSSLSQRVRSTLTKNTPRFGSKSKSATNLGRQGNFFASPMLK

Receptor-type tyrosine-protein kinase FLT3, sequence (P36888 whole entry): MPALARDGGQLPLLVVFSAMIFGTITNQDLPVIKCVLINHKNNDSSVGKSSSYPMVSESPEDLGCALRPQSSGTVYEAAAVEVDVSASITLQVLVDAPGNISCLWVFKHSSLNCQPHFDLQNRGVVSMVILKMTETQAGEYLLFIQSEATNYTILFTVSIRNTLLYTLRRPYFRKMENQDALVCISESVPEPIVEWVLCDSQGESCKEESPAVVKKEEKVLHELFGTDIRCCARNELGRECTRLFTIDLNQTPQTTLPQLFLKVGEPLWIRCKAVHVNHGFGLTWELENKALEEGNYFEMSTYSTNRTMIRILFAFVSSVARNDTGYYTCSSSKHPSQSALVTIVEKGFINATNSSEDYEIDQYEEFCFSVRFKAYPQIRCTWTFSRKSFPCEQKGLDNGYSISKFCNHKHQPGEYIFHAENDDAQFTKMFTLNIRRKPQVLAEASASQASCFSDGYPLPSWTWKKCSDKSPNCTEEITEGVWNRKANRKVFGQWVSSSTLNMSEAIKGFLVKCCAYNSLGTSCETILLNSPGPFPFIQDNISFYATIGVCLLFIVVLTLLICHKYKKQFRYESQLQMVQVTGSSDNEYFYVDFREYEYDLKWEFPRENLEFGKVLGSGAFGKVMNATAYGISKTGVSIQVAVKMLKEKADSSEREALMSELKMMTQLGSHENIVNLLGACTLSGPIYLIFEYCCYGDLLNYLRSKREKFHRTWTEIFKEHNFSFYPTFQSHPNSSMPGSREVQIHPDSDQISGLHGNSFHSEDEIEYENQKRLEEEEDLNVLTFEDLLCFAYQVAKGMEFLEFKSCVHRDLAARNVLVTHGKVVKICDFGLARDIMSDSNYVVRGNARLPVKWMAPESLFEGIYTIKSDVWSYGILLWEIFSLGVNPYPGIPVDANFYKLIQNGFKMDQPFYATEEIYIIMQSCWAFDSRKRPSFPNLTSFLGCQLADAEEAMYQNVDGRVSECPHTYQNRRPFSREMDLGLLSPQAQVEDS
Serine/threonine-protein kinase PLK4, sequence (O00444 whole entry): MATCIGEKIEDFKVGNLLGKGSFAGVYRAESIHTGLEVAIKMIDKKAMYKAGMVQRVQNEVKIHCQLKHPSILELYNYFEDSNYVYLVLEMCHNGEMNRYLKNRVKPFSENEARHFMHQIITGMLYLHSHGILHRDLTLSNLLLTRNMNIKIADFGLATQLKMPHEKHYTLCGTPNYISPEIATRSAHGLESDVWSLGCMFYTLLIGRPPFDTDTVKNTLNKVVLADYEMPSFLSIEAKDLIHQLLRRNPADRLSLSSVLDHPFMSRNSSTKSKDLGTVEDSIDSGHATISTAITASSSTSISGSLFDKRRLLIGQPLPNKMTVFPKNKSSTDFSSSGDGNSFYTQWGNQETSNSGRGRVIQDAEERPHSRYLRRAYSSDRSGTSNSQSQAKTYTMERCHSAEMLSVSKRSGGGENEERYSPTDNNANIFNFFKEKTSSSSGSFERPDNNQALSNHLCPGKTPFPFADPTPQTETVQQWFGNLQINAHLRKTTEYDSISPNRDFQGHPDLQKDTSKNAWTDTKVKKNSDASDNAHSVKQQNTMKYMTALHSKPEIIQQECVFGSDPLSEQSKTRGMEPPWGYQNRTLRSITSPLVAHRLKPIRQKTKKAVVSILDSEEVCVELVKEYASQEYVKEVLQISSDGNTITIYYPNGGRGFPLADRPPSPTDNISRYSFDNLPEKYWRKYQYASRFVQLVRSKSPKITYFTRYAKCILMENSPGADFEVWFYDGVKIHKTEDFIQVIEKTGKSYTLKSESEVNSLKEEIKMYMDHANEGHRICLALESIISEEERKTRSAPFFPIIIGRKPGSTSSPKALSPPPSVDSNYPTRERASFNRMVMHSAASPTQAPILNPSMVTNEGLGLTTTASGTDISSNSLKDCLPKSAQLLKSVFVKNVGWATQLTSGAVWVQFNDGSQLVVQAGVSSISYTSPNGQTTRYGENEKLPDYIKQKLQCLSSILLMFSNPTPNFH

Structure (SMILES) | EC50 [1] | IC50 [2] | IC50 [3] | Ki [4] | Ki [5] | IC50 [6]
CCC(C)NC(=O)c1c(N)n(CCCOC)c2nc3ccccc3nc12 (configuration not stated) | 34.1 µM (active) | > 50 µM (not active) | 25.9 µM (active) | – | – | –
CC(=NNC(=N)N)c1cc(NC(=O)NCCCCCCNC(=O)Nc2cc(C(C)=NNC(=N)N)cc(C(C)=NNC(=N)N)c2)cc(C(C)=NNC(=N)N)c1 | – | – | – | > 3.98 µM (inactive) | 2 µM (active) | –
Cc1cc(N)c2cc(NC(=O)/C=C/c3ccccc3Cl)ccc2n1 | – | – | 9.95 µM (active) | – | – | 23.7 µM (active)
